Literature values as cited in publication PMC6105804, “In Vitro and In Vivo Evaluation of APX001A/APX001 and Other Gwt1 Inhibitors against Cryptococcus” (Antimicrobial Agents and Chemotherapy, 2018).

Columns and labels:
[1] = design: method as in ref 23 = [23]; 23. Zhao Y , Lee M , Lee A , Paderu P , Park S , Perlin DS 2018 APX001 is effective against echinocandin and multi-drug resistant Candida isolates . Abstr 28th ECCMID , Madrid, Spain .; details: female CD-1 mice, cited from earlier work
[2] = design: method as in ref 11, 12 = [11]; 11. Hodges MR , Ople E , Shaw KJ , Mansbach RS , van Marle S , van Hoogdalem E , Kramer W , Wedel P 2017 Phase 1 study to assess safety, tolerability and pharmacokinetics of single and multiple oral d || [12]; 12. Hodges MR , Ople E , Shaw KJ , Mansbach RS , van Marle S , van Hoogdalem E , Wedel P , Kramer W 2017 First-in-human study to assess safety, tolerability and pharmacokinetics of APX001 administered; details: phase 1 studies in healthy volunteers; cited from earlier work
[3] = 100-mg/kg ABT orally 2 h prior to APX001 i.p.

Nc1ncccc1-c1cc(Cc2ccc(COc3ccccn3)cc2)no1 [APX001A]
fold increase in AUC with ABT [1, 3]: 9 fold
half-life of the active moiety with ABT [1, 3]: 8.8 h
half-life of the active moiety without ABT ([1]; APX001 i.p.): 1.3 h
exposures in humans [2]: ≥ 200 µg·h/mL
half-life in humans [2]: 60 h
